For assay [1], the target named is T1, Glycogen phosphorylase, liver form (Homo sapiens, UniProt P06737).
T1 sequence (P06737 whole entry): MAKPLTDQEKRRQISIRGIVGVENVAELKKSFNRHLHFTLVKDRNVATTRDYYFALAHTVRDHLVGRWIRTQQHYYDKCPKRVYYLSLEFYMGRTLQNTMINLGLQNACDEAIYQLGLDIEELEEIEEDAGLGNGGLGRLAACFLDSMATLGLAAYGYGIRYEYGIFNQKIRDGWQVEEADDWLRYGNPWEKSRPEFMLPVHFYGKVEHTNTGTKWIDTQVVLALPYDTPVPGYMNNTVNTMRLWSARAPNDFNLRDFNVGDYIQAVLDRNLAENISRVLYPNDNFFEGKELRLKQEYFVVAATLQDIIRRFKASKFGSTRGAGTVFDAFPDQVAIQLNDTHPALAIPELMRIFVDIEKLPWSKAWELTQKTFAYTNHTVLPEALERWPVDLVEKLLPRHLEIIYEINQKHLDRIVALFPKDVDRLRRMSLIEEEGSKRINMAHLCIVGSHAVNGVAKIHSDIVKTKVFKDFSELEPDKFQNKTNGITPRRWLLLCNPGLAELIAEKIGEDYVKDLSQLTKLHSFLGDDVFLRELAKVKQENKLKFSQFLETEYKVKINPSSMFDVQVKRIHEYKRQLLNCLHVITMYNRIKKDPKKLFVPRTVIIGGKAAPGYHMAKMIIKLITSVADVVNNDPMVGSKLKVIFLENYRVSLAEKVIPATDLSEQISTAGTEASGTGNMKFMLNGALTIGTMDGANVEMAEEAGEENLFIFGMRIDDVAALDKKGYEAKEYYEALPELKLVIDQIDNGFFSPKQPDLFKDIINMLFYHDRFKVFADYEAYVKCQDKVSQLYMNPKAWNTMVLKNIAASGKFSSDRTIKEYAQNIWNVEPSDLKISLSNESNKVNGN
The format is subcellular, K-562, COLO 205, SK-N-BE(2) and MV-4-11, Cell lysate. Conditions: read-out: Kd apparent.

In assay [2] the target is Mitogen-activated protein kinase 8 (Homo sapiens, UniProt P45983).
Assay [3] deals with Tyrosine-protein kinase Fer (Homo sapiens, UniProt P16591).
Assay [4] deals with GTP-binding nuclear protein Ran (Homo sapiens, UniProt P62826).
In assay [5] the target is Platelet-derived growth factor receptor beta (Homo sapiens, UniProt P09619).
For assay [6], the target named is DnaJ homolog subfamily A member 1 (Homo sapiens, UniProt P31689).
Assay [7] deals with Protein kinase C alpha type (Homo sapiens, UniProt P17252).
Assay [8] concerns the target T2, Interleukin-1 receptor-associated kinase 4 (Homo sapiens, UniProt Q9NWZ3).
T2 sequence (Q9NWZ3 whole entry): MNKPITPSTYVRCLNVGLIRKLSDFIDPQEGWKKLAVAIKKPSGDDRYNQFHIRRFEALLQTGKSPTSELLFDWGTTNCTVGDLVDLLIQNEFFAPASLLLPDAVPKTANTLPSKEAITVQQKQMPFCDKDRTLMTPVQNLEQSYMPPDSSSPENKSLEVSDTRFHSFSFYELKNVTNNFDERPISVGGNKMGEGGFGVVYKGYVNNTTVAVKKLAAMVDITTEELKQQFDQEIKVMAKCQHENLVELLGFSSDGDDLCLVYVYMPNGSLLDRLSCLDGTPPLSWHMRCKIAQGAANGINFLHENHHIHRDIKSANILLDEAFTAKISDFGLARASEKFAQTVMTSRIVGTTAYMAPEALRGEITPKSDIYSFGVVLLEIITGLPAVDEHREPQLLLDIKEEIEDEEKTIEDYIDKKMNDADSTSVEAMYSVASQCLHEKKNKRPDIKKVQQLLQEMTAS

Assay [9] has as its target U5 small nuclear ribonucleoprotein 200 kDa helicase (Homo sapiens, UniProt O75643).
For assay [10], the target named is Bone morphogenetic protein receptor type-1B (Homo sapiens, UniProt O00238).
In assay [11] the target is Serine/threonine-protein kinase 26 (Homo sapiens, UniProt Q9P289).
Assay [12] concerns the target T3, Dynamin-like GTPase OPA1, mitochondrial (Homo sapiens, UniProt O60313).
T3 sequence (O60313 whole entry): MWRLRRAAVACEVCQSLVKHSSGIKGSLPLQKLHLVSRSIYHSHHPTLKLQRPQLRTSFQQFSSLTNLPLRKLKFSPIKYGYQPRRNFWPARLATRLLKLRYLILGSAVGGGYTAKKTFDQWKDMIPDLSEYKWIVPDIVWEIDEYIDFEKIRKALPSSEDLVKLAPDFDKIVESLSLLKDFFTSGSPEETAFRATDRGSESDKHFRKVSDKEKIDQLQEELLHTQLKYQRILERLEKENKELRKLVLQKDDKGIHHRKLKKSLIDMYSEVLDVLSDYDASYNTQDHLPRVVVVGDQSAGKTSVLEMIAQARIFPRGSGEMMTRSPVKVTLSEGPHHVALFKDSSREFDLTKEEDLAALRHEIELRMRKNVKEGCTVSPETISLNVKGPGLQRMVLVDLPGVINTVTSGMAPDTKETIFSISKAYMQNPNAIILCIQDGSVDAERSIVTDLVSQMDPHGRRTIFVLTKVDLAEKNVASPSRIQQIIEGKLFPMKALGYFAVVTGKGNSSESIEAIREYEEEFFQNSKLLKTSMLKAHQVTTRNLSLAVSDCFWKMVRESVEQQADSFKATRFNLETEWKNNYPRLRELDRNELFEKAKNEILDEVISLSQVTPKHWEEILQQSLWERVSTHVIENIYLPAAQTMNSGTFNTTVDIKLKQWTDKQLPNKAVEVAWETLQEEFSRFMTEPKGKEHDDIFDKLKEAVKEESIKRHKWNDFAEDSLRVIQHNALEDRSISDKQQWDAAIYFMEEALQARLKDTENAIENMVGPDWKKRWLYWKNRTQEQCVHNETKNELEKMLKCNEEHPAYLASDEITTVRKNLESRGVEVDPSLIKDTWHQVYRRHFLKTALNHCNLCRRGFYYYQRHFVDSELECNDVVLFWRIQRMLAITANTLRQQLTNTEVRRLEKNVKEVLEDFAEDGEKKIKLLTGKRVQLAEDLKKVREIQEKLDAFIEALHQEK

Assay [13] concerns the target Serine/threonine-protein kinase 16 (Homo sapiens, UniProt O75716).
The target in another assay is Adenosine kinase (Homo sapiens, UniProt P55263).

Active and inactive are the calls of the source. For most assays here, no stated cut-off is given here; in the data, actives have a measured Kd and inactives only a lower limit.

Sequence of Bone morphogenetic protein receptor type-1B (O00238 whole entry): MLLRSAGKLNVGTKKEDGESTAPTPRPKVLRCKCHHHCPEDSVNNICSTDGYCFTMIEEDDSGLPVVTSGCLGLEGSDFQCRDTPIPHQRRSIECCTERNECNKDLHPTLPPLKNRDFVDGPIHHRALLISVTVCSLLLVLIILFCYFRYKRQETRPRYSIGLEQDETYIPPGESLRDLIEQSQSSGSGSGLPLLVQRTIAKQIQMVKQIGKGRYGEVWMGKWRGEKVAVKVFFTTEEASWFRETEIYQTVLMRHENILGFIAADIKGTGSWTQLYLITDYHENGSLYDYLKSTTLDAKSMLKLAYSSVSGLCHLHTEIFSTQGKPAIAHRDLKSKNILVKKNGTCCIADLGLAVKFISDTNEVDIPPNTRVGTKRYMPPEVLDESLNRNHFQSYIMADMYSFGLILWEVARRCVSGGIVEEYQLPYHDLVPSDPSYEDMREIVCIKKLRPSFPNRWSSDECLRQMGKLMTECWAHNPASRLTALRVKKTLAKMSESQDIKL
Sequence of Serine/threonine-protein kinase 16 (O75716 whole entry): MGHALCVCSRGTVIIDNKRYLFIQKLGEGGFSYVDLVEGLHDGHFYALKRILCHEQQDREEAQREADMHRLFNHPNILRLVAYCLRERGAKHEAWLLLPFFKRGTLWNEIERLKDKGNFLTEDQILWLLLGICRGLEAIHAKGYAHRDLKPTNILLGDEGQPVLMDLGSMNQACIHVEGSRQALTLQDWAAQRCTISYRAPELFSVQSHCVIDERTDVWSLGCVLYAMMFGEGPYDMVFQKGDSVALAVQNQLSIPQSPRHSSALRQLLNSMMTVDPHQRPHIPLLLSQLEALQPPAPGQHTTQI
Sequence of Adenosine kinase (P55263 whole entry): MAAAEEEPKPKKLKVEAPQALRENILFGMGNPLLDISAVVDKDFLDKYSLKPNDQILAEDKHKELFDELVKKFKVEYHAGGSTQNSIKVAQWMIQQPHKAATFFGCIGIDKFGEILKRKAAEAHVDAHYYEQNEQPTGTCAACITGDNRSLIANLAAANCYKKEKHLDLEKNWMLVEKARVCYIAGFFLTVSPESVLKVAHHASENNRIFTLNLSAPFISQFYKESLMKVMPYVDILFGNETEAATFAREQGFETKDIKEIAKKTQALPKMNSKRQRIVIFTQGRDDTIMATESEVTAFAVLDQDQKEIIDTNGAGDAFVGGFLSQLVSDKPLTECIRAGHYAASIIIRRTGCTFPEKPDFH
Sequence of Mitogen-activated protein kinase 8 (P45983 whole entry): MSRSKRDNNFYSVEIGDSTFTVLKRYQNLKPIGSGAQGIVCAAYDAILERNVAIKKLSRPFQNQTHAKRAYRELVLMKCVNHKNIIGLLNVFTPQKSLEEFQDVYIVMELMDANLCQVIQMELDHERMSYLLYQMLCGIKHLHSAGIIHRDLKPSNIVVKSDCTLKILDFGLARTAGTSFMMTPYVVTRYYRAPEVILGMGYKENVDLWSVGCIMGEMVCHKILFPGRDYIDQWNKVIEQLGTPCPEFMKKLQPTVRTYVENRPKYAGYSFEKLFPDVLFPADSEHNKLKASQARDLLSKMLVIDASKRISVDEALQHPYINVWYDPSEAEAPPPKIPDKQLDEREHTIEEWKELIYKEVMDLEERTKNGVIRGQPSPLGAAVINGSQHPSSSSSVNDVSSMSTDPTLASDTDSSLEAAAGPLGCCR
Sequence of Platelet-derived growth factor receptor beta (P09619 whole entry): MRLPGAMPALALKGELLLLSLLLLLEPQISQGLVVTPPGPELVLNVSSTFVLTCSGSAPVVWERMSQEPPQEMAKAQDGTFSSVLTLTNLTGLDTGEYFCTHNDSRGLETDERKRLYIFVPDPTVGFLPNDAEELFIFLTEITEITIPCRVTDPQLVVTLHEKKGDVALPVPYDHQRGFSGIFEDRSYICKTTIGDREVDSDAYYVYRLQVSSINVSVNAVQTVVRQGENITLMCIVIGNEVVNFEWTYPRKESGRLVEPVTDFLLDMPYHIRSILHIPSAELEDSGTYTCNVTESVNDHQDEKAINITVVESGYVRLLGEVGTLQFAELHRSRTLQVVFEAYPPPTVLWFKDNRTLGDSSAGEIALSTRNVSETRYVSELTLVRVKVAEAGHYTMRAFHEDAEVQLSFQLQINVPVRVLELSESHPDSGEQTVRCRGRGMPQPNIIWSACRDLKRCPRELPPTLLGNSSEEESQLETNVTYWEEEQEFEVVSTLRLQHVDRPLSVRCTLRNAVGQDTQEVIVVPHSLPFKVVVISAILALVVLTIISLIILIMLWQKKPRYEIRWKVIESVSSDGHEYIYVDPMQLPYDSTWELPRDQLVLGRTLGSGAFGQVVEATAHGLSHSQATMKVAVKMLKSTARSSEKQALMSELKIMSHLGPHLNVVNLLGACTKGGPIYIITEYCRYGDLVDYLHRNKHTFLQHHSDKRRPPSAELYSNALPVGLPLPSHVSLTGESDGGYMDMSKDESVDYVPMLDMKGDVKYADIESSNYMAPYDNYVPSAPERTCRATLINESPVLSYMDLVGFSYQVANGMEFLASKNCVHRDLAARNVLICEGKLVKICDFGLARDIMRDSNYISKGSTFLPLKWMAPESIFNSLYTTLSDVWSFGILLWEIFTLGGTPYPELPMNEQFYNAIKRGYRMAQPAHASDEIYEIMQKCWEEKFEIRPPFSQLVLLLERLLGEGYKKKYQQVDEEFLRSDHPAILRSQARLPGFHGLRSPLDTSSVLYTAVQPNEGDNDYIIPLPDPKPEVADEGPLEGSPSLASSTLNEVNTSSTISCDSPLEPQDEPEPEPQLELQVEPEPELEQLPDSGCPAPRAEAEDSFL
Sequence of Tyrosine-protein kinase Fer (P16591 whole entry): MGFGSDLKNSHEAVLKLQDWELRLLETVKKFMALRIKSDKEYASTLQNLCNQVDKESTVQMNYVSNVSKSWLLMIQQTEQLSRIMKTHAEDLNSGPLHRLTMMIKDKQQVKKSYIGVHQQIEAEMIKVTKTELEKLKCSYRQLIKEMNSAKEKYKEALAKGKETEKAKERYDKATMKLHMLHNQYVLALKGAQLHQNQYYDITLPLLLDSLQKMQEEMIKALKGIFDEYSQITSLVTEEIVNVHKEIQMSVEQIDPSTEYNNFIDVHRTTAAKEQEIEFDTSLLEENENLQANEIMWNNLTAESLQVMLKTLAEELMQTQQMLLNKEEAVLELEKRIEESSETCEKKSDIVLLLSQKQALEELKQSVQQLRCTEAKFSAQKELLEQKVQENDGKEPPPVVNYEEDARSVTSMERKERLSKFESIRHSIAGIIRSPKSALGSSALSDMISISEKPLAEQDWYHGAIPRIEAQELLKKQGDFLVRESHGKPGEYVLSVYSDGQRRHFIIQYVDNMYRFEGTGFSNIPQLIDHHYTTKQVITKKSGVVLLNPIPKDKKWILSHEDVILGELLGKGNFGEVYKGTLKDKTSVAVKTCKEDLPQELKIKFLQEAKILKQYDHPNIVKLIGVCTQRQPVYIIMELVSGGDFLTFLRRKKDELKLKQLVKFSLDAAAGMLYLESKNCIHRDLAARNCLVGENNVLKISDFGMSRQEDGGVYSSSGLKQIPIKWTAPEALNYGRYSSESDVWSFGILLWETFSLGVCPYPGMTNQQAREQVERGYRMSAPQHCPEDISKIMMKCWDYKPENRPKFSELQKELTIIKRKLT
Sequence of DnaJ homolog subfamily A member 1 (P31689 whole entry): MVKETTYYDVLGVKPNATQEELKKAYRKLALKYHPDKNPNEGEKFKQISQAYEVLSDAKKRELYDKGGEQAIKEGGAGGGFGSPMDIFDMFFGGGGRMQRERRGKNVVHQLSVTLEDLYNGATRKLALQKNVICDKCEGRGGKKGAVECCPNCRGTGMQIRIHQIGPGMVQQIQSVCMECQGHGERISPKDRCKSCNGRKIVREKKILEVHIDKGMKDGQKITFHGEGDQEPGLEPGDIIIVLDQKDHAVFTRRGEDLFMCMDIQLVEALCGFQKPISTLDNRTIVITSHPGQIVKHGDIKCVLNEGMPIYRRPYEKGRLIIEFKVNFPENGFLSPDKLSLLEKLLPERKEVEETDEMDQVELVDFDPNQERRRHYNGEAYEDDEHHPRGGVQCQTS
Sequence of Serine/threonine-protein kinase 26 (Q9P289 whole entry): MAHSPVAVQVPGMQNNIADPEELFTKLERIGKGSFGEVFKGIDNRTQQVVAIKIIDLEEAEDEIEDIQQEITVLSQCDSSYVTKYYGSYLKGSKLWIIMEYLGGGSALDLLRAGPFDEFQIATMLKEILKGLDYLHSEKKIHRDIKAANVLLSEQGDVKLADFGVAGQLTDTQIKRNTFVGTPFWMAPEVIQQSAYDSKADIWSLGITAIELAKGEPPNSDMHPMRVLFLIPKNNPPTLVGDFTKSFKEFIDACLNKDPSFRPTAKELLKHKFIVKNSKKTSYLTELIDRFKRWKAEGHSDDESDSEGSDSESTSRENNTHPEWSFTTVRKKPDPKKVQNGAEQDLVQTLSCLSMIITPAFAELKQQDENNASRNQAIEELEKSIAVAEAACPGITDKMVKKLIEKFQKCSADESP

For the molecule `CC[C@@H]1C(=O)N(C)c2cnc(Nc3ccc(C(=O)N[C@H]4CC[C@H](N5CCN(CC6CC6)CC5)CC4)cc3OC)nc2N1C(C)C` [VOLASERTIB], the Kd in [1], in [2], in [3], in assay [4], in [5] and in [6] was > 30 µM (inactive) each time. Further, the Kd in [7], in assay [8], in assay [9], in [10], in assay [11] and in assay [12] was > 30 µM (inactive) in each case. The Kd (in assay [13]; on Adenosine kinase) was > 30 µM (inactive) throughout.
With `Cc1ccc(S(=O)(=O)Nc2nc3ccccc3nc2Nc2ccc3nsnc3c2)cc1`, the Kd in assay [1], in [2], in [3], in assay [4], in [5] and in assay [6] was > 30 µM (inactive) in each case. Besides, the Kd in [7], in assay [8], in [9], in assay [10], in assay [11] and in assay [12] was > 30 µM (inactive) each time. The Kd (in [13]; at Adenosine kinase) was > 30 µM (inactive) each time.
For the molecule `Cn1cc(-c2ccc(F)c(C(F)(F)F)c2)nc1C1CCN(c2ncnc3[nH]ncc23)CC1` [LY-2584702], the Kd in [1], in assay [2], in assay [3], in [4], in [5] and in assay [6] was > 30 µM (inactive) throughout. The Kd in assay [7], in [8], in assay [9], in [10], in [11] and in assay [12] was > 30 µM (inactive) throughout. Besides, the Kd (in [13]; on Adenosine kinase) was > 30 µM (inactive) in each case.
With `COc1cc(OC)c(/C=C/S(=O)(=O)Cc2ccc(OC)c(NCC(=O)O)c2)c(OC)c1` [RIGOSERTIB], the Kd in assay [1], in assay [2], in [3], in assay [4], in [5] and in assay [6] was > 30 µM (inactive) each time. Further, the Kd in assay [7], in assay [8], in assay [9], in assay [10], in [11] and in assay [12] was > 30 µM (inactive) each time. Further, the Kd (in assay [13]; on Adenosine kinase) was > 30 µM (inactive) throughout.
With `O=C1NC(=O)/C(=C/c2ccc3nccc(-c4ccncc4)c3c2)S1` [GSK-1059615], the Kd in assay [1], in [2], in assay [3], in [4], in assay [5] and in assay [6] was > 30 µM (inactive) throughout. Further, the Kd in assay [7], in assay [8], in assay [9], in assay [10], in assay [11] and in assay [12] was > 30 µM (inactive) each time. Further, the Kd in assay [13] was > 30 µM (inactive).
Turning to `C[C@@H](c1ccc2nccn2c1)n1nnc2ncc(-c3cnn(C)c3)nc21` [SAVOLITINIB], the Kd in assay [1], in [2], in assay [3], in assay [4], in assay [5] and in assay [6] was > 30 µM (inactive) throughout. The Kd in assay [7], in [8], in assay [10], in [11], in assay [12] and in assay [13] was > 30 µM (inactive) throughout. For the same molecule, on Adenosine kinase, the Kd was > 30 µM (inactive).
For the molecule `COc1cc(N2CCC(N3CCN(C)CC3)CC2)ccc1Nc1ncnc(Nc2ccccc2S(=O)(=O)C(C)C)n1` [ASP-3026], the Kd was > 30 µM (inactive) in assay [1]; > 30 µM (inactive) in [2]; 0.363 µM (active) in [3]; > 30 µM (inactive) in assay [4]; > 30 µM (inactive) in assay [5]; > 30 µM (inactive) in [6]. In addition, the Kd was > 30 µM (inactive) in assay [7]; > 30 µM (inactive) in assay [8]; > 30 µM (inactive) in assay [9]; 1.82 µM (active) in assay [10]; > 30 µM (inactive) in assay [11]; > 30 µM (inactive) in assay [12]. In addition, in assay [13], the Kd was > 30 µM (inactive).
Regarding `O=C(c1ccc(F)c(F)c1Nc1ccc(I)cc1F)N1CC(O)([C@@H]2CCCCN2)C1` [COBIMETINIB], the Kd in assay [1], in [2], in assay [3], in assay [4], in assay [5] and in assay [6] was > 30 µM (inactive) each time. For the same molecule, the Kd in assay [7], in assay [8], in assay [9], in assay [10], in [11] and in assay [12] was > 30 µM (inactive) throughout. For the same molecule, the Kd in [13] was > 30 µM (inactive).

Values taken from ChEMBL document CHEMBL3991601, “The target landscape of clinical kinase drugs” (Science, 2017).
